Results: ChEMBL document CHEMBL1201862, “PubChem BioAssay data set” (2004)
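48-hour exposure; five concentrations; linearly interpolated endpoints. GI50 marks 50% less growth.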 Calls of active or inactive are those of the source. Rule as the data show it: active = GI50 up to about 1.1 µM and inactive = higher.

What was measured:
Assay in all cases: DTP human tumour cell line panel, 48 h
MDA-N = test system: MDA-N
M14 = test system: M14
Hs-578T = test system: Hs-578T
MDA-MB-231 = test system: MDA-MB-231
SF-295 = test system: SF-295
SK-MEL-28 = test system: SK-MEL-28
U-251 = test system: U-251
MCF7 = test system: MCF7
NCI-H460 = test system: NCI-H460
SN12C = test system: SN12C
PC-3 = test system: PC-3
OVCAR-4 = test system: OVCAR-4
T47D = test system: T47D
SK-OV-3 = test system: SK-OV-3
SK-MEL-5 = test system: SK-MEL-5
MOLT-4 = test system: MOLT-4
OVCAR-8 = test system: OVCAR-8
NCI-H226 = test system: NCI-H226
COLO 205 = test system: COLO 205
OVCAR-5 = test system: OVCAR-5
SNB-75 = test system: SNB-75
HT-29 = test system: HT-29
RXF 393 = test system: RXF 393
KM12 = test system: KM12
HCC 2998 = test system: HCC 2998
DU-145 = test system: DU-145
SR = test system: SR
NCI-H522 = test system: NCI-H522
RPMI-8226 = test system: RPMI-8226
HCT-15 = test system: HCT-15
K562 = test system: K562
OVCAR-3 = test system: OVCAR-3
CCRF-CEM = test system: CCRF-CEM
A498 = test system: A498
HL-60 = test system: HL-60
HOP-62 = test system: HOP-62
HCT-116 = test system: HCT-116
Malme-3M = test system: Malme-3M
UO-31 = test system: UO-31
SK-MEL-2 = test system: SK-MEL-2
NCI/ADR-RES = test system: NCI/ADR-RES
SNB-19 = test system: SNB-19
NCI-H23 = test system: NCI-H23
UACC-62 = test system: UACC-62
MDA-MB-435 = test system: MDA-MB-435
IGROV-1 = test system: IGROV-1
CAKI-1 = test system: CAKI-1
BT-549 = test system: BT-549
786-0 = test system: 786-0
TK-10 = test system: TK-10
SW-620 = test system: SW-620
A549 = test system: A549
EKVX = test system: EKVX
SF-539 = test system: SF-539
SF-268 = test system: SF-268
LOX IMVI = test system: LOX IMVI
ACHN = test system: ACHN
UACC-257 = test system: UACC-257

Measured: GI50

S=C1SC(=N\c2ccccc2)/C(=N/c2ccccc2)N1c1ccccc1
inactive: MDA-N > 100 µM | M14 > 100 µM | Hs-578T 27.9 µM | MDA-MB-231 > 100 µM | SF-295 34.5 µM | SK-MEL-28 > 100 µM | U-251 90.8 µM | MCF7 > 100 µM | NCI-H460 > 100 µM | SN12C > 100 µM | PC-3 > 100 µM | OVCAR-4 8.53 µM | T47D > 100 µM | SK-OV-3 > 100 µM | SK-MEL-5 62.7 µM | MOLT-4 > 100 µM | OVCAR-8 93.8 µM | NCI-H226 > 100 µM | COLO 205 > 100 µM | OVCAR-5 > 100 µM | SNB-75 19 µM | HT-29 87.7 µM | RXF 393 > 100 µM | KM12 > 100 µM | HCC 2998 > 100 µM | DU-145 > 100 µM | SR > 100 µM | NCI-H522 > 100 µM | RPMI-8226 31.3 µM | K562 > 100 µM | OVCAR-3 34.4 µM | CCRF-CEM 18.1 µM | A498 > 100 µM | HL-60 > 10 µM | HOP-62 28 µM | HCT-116 83.9 µM | Malme-3M 45.9 µM | UO-31 > 100 µM | SK-MEL-2 > 100 µM | NCI/ADR-RES > 100 µM | SNB-19 > 100 µM | NCI-H23 > 100 µM | UACC-62 22.8 µM | MDA-MB-435 > 100 µM | IGROV-1 > 100 µM | CAKI-1 > 100 µM | BT-549 > 100 µM
> 100 µM: HCT-15

N#C/C=c1/c2ccccc2n2nc3ccccc3c12
43.3 µM: HCT-15
inactive: MDA-N > 100 µM | M14 51.9 µM | Hs-578T 22.1 µM | MDA-MB-231 3.61 µM | 786-0 5.01 µM | SF-295 21.7 µM | SK-MEL-28 > 100 µM | U-251 12 µM | MCF7 11.3 µM | NCI-H460 8.09 µM | SN12C 25.2 µM | PC-3 68.4 µM | OVCAR-4 11.6 µM | T47D > 100 µM | SK-OV-3 5.65 µM | SK-MEL-5 26.7 µM | TK-10 8.02 µM | OVCAR-8 11.7 µM | COLO 205 16.8 µM | OVCAR-5 67.6 µM | HT-29 25.6 µM | RXF 393 16.8 µM | KM12 17.3 µM | SW-620 25.6 µM | A549 30.2 µM | HCC 2998 26.5 µM | DU-145 > 100 µM | SR 5.79 µM | NCI-H522 12.5 µM | RPMI-8226 7.36 µM | K562 > 100 µM | EKVX 24.5 µM | OVCAR-3 34.5 µM | SF-539 8.69 µM | SF-268 10.9 µM | LOX IMVI 8.13 µM | CCRF-CEM 81.7 µM | A498 13.7 µM | HL-60 > 100 µM | HOP-62 17 µM | HCT-116 3.09 µM | Malme-3M 46.6 µM | UO-31 10.8 µM | ACHN 6.71 µM | SK-MEL-2 48.6 µM | NCI/ADR-RES 14.9 µM | SNB-19 16 µM | NCI-H23 22.3 µM | UACC-62 14.9 µM | MDA-MB-435 > 100 µM | UACC-257 > 100 µM | IGROV-1 7.19 µM | CAKI-1 6.85 µM | BT-549 > 100 µM

Cc1ccc(C(=C2Sc3ccccc3S2)C(=C2Sc3ccccc3S2)c2ccc(C)s2)s1
> 100 µM: HCT-15
inactive: MDA-N > 100 µM | M14 76.2 µM | Hs-578T > 100 µM | MDA-MB-231 42.8 µM | 786-0 > 100 µM | SF-295 > 100 µM | SK-MEL-28 > 100 µM | U-251 > 100 µM | MCF7 > 100 µM | SN12C > 100 µM | PC-3 > 100 µM | OVCAR-4 > 100 µM | T47D > 100 µM | SK-OV-3 > 100 µM | SK-MEL-5 > 100 µM | TK-10 > 100 µM | MOLT-4 > 100 µM | OVCAR-8 > 100 µM | NCI-H226 > 100 µM | COLO 205 > 100 µM | OVCAR-5 > 100 µM | SNB-75 > 100 µM | HT-29 > 100 µM | RXF 393 > 100 µM | KM12 > 100 µM | SW-620 > 100 µM | A549 > 100 µM | HCC 2998 > 100 µM | DU-145 > 100 µM | SR 47.5 µM | NCI-H522 > 100 µM | RPMI-8226 > 100 µM | K562 > 100 µM | EKVX > 100 µM | OVCAR-3 > 100 µM | SF-268 > 100 µM | CCRF-CEM > 100 µM | A498 > 100 µM | HL-60 13.6 µM | HOP-62 > 100 µM | HCT-116 > 100 µM | Malme-3M > 100 µM | UO-31 > 100 µM | ACHN > 100 µM | SK-MEL-2 > 100 µM | NCI/ADR-RES > 100 µM | SNB-19 > 100 µM | NCI-H23 > 100 µM | UACC-62 > 100 µM | MDA-MB-435 > 100 µM | UACC-257 > 100 µM | IGROV-1 > 100 µM | CAKI-1 > 100 µM | BT-549 > 100 µM

OC[C@H]1N[C@H](CO)[C@@H](O)[C@H]1O
> 100 µM: HCT-15
inactive: MDA-N > 10 µM | M14 > 100 µM | Hs-578T > 100 µM | MDA-MB-231 > 100 µM | 786-0 > 100 µM | SF-295 > 100 µM | SK-MEL-28 > 100 µM | U-251 > 100 µM | MCF7 > 100 µM | SN12C > 100 µM | PC-3 > 100 µM | T47D > 100 µM | SK-OV-3 > 100 µM | SK-MEL-5 > 100 µM | TK-10 > 100 µM | MOLT-4 > 100 µM | OVCAR-8 > 100 µM | NCI-H226 > 100 µM | COLO 205 > 100 µM | OVCAR-5 > 100 µM | SNB-75 > 100 µM | HT-29 > 100 µM | RXF 393 > 100 µM | KM12 > 100 µM | SW-620 > 100 µM | A549 > 100 µM | HCC 2998 > 100 µM | DU-145 > 100 µM | SR > 100 µM | NCI-H522 > 100 µM | RPMI-8226 > 100 µM | K562 > 100 µM | EKVX > 100 µM | SF-539 > 100 µM | SF-268 > 100 µM | LOX IMVI > 100 µM | CCRF-CEM > 100 µM | A498 > 100 µM | HL-60 > 100 µM | HOP-62 > 100 µM | HCT-116 > 100 µM | Malme-3M > 100 µM | UO-31 > 100 µM | ACHN > 100 µM | SK-MEL-2 > 100 µM | NCI/ADR-RES > 100 µM | SNB-19 > 100 µM | NCI-H23 > 100 µM | UACC-62 > 100 µM | MDA-MB-435 > 100 µM | UACC-257 > 100 µM | IGROV-1 > 100 µM | CAKI-1 > 100 µM | BT-549 > 100 µM

COc1cc2nc(-c3ccccc3)cc(O)c2c(OC)c1OC
> 100 µM: HCT-15
inactive: MDA-N > 100 µM | M14 > 100 µM | Hs-578T > 100 µM | MDA-MB-231 61 µM | 786-0 > 100 µM | SF-295 > 100 µM | SK-MEL-28 > 100 µM | U-251 > 100 µM | MCF7 67.1 µM | NCI-H460 > 100 µM | SN12C > 100 µM | PC-3 > 100 µM | OVCAR-4 > 100 µM | T47D 34.1 µM | SK-OV-3 > 100 µM | SK-MEL-5 > 100 µM | TK-10 > 100 µM | MOLT-4 > 100 µM | OVCAR-8 > 100 µM | NCI-H226 > 100 µM | COLO 205 > 100 µM | OVCAR-5 > 100 µM | SNB-75 > 100 µM | HT-29 > 100 µM | RXF 393 > 100 µM | KM12 > 100 µM | SW-620 > 100 µM | A549 > 100 µM | HCC 2998 > 100 µM | DU-145 > 100 µM | SR > 100 µM | NCI-H522 > 100 µM | RPMI-8226 > 100 µM | K562 > 100 µM | EKVX > 100 µM | OVCAR-3 > 100 µM | SF-268 > 100 µM | LOX IMVI > 100 µM | CCRF-CEM > 100 µM | A498 > 100 µM | HL-60 > 100 µM | HOP-62 > 100 µM | HCT-116 > 100 µM | Malme-3M > 100 µM | UO-31 98.4 µM | ACHN > 100 µM | SK-MEL-2 > 100 µM | NCI/ADR-RES > 100 µM | SNB-19 > 100 µM | NCI-H23 > 100 µM | UACC-62 > 100 µM | MDA-MB-435 > 100 µM | UACC-257 > 100 µM | IGROV-1 > 100 µM | BT-549 > 100 µM
